Data taken from ChEMBL document CHEMBL1201862, “PubChem BioAssay data set” (2004).
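Interpolation was linear, between the two tested concentrations surrounding the appropriate level; five concentrations were tested over 48 hours in 96-well plates. GI50: concentration for 50% inhibition of growth.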 The source made the active and inactive calls. Cut-off read from the data, not from the text of the source: active = GI50 up to about 1.1 µM and inactive = higher.

Assays:
Assay in all cases: growth of human tumour cells (NCI), 48 h
MOLT-4 = system: MOLT-4
CCRF-CEM = system: CCRF-CEM
HT-29 = system: HT-29
SNB-19 = system: SNB-19
HCT-116 = system: HCT-116
786-0 = system: 786-0
DMS-273 = system: DMS-273
M14 = system: M14
KM-20L2 = system: KM-20L2
NCI-H23 = system: NCI-H23
KM12 = system: KM12
COLO 205 = system: COLO 205
RXF 631 = system: RXF 631
SK-OV-3 = system: SK-OV-3
CAKI-1 = system: CAKI-1
HCC 2998 = system: HCC 2998
SN12C = system: SN12C
SF-295 = system: SF-295
M19-MEL = system: M19-MEL
UACC-257 = system: UACC-257
K562 = system: K562
TK-10 = system: TK-10
HL-60 = system: HL-60
RXF 393 = system: RXF 393
HOP-92 = system: HOP-92
NCI-H226 = system: NCI-H226
HCT-15 = system: HCT-15
OVCAR-4 = system: OVCAR-4
IGROV-1 = system: IGROV-1
SK-MEL-28 = system: SK-MEL-28
ACHN = system: ACHN
A549 = system: A549
NCI-H522 = system: NCI-H522
EKVX = system: EKVX
OVCAR-5 = system: OVCAR-5
SF-268 = system: SF-268
Malme-3M = system: Malme-3M
SR = system: SR
NCI-H460 = system: NCI-H460
SNB-78 = system: SNB-78
SW-620 = system: SW-620
LOX IMVI = system: LOX IMVI
SF-539 = system: SF-539
LXFL 529 = system: LXFL 529
SK-MEL-5 = system: SK-MEL-5
HOP-62 = system: HOP-62
XF498 = system: XF498
UACC-62 = system: UACC-62
U-251 = system: U-251
OVCAR-3 = system: OVCAR-3
HOP-18 = system: HOP-18
SK-MEL-2 = system: SK-MEL-2
RPMI-8226 = system: RPMI-8226
DLD-1 = system: DLD-1
OVCAR-8 = system: OVCAR-8

CC(=O)OC1COC(N2C(=O)/C(=N\Nc3ccc([N+](=O)[O-])cc3)c3cc(Br)c([N+](=O)[O-])cc32)C(OC(C)=O)C1OC(C)=O (stereo not given)
GI50 (MOLT-4): > 100 µM (inactive) | GI50 (CCRF-CEM): 61.5 µM (inactive) | GI50 (HT-29): 74.5 µM (inactive) | GI50 (SNB-19): > 100 µM (inactive) | GI50 (HCT-116): 44.6 µM (inactive) | GI50 (786-0): 42 µM (inactive) | GI50 (DMS-273): 35.2 µM (inactive) | GI50 (M14): 55.8 µM (inactive) | GI50 (KM-20L2): 32.1 µM (inactive) | GI50 (NCI-H23): 31.6 µM (inactive) | GI50 (KM12): 27.9 µM (inactive) | GI50 (COLO 205): > 100 µM (inactive) | GI50 (RXF 631): 22.2 µM (inactive) | GI50 (SK-OV-3): 40.6 µM (inactive) | GI50 (CAKI-1): 50.4 µM (inactive) | GI50 (HCC 2998): > 100 µM (inactive) | GI50 (SN12C): > 100 µM (inactive) | GI50 (SF-295): 21.4 µM (inactive) | GI50 (M19-MEL): > 100 µM (inactive) | GI50 (UACC-257): > 100 µM (inactive) | GI50 (K562): 41 µM (inactive) | GI50 (TK-10): > 100 µM (inactive) | GI50 (HL-60): 65.6 µM (inactive) | GI50 (RXF 393): 15.5 µM (inactive) | GI50 (HOP-92): 8.26 µM (inactive) | GI50 (NCI-H226): > 100 µM (inactive) | GI50 (HCT-15): 33 µM | GI50 (OVCAR-4): 32.9 µM (inactive) | GI50 (IGROV-1): 26.2 µM (inactive) | GI50 (SK-MEL-28): > 100 µM (inactive) | GI50 (ACHN): 21.6 µM (inactive) | GI50 (A549): > 100 µM (inactive) | GI50 (NCI-H522): 24.1 µM (inactive) | GI50 (EKVX): 62.7 µM (inactive) | GI50 (OVCAR-5): > 100 µM (inactive) | GI50 (SF-268): 26.4 µM (inactive) | GI50 (Malme-3M): > 100 µM (inactive) | GI50 (SR): 98.9 µM (inactive) | GI50 (NCI-H460): > 100 µM (inactive) | GI50 (SNB-78): 27.2 µM (inactive) | GI50 (SW-620): 46 µM (inactive) | GI50 (LOX IMVI): 51.1 µM (inactive) | GI50 (SF-539): 68.2 µM (inactive) | GI50 (LXFL 529): 21.8 µM (inactive) | GI50 (SK-MEL-5): 24.1 µM (inactive) | GI50 (HOP-62): 38.5 µM (inactive) | GI50 (XF498): 32.8 µM (inactive) | GI50 (UACC-62): 15.3 µM (inactive) | GI50 (U-251): 36.8 µM (inactive) | GI50 (OVCAR-3): > 100 µM (inactive) | GI50 (HOP-18): > 100 µM (inactive) | GI50 (SK-MEL-2): > 100 µM (inactive) | GI50 (RPMI-8226): > 100 µM (inactive) | GI50 (DLD-1): > 100 µM (inactive) | GI50 (OVCAR-8): > 100 µM (inactive)
